Laboratory results: patent US6518221B1, “Plant growth regulator and method for using same” (Wilbur-Ellis Company, priority 2002, dated 2003)

Experiments:
Format in all cases: in vivo
cotton = experiment: Field trials in Greece: plant growth regulating effects (plant height); conditions: 20.0 gm/Ha
Description: Field trials were established in the country of Greece to determine the plant growth regulating effects of several products, including the chemical formulation of the present invention. The particular formulation of the present invention used in these trials, was as follows: 1.0 parts CCC; 2.7 parts WSCP; 0.6 parts CC; 27 parts Calcium; and, 6.75 parts Zinc (parts per weight). All of the chemical applications were applied at the same time, and there were three replications at each trial site.

MAXXA cotton = experiment: Study on MAXXA cotton: effects on plant growth and development; conditions: 10 gm/A
Experimental: A study was conducted on MAXXA cotton to determine the effects of Mepiquat Chloride and the combination of (CCC) chlormequat chloride/WSCP on plant growth and development.
In this example, the amount of WSCP used in each chemical treatment was constant, and the amount of CCC varied from 2.5 to 5.0 grams/acre. The corresponding ratios of WSCP and CCC were as follows: at the 2.5 gram/acre rate the ratio of WSCP to CCC was 30:1; at the 5.0 gram/acre rate the ratio of WSCP to CCC was 15:1. It should also be noted that 5.0% calcium and 1.25% zinc were also added to each of the mixtures.

[1] = tested on: Stoneville cotton variety; experiment: Field study in Mississippi on Stoneville cotton: fruit (boll) set; conditions: 10 grams per acre, applied once on July 8th, with 5.0% calcium and 1.25% zinc
Experimental: A field study was conducted in the State of Mississippi on a Stoneville cotton variety, in which the physiological characteristics of plants treated with the plant growth regulator of the present invention (a mixture of CCC, WSCP, and CC), were compared to the characteristics of untreated plants, or “checks”, and the characteristics of plants treated with PIX.
The formulation of the present invention used in Example 2 was as follows: the ratio of WSCP to CCC was reduced to 2.7:1, and the ratio of CC (Choline Chloride) to CCC was 0.6:1. Also added to the formulation was 5.0% calcium and 1.25% zinc.
The rate of PIX application was 10 grams per acre, applied once on July 8th of the study year. The rate and timing of this application was consistent with the manufacturer's label recommendation. The rate of application of the plant growth regulator of the present invention was 2.5 grams per acre, applied once on June 28th and again on July 18th. As with Example 1, the formulations of PIX used in Example 2, included 5.0% calcium and 1.25% zinc.
The physiological characteristics under study determine the effectiveness of the chemical products on fruit, or boll, set. The first fruiting position on a reproductive branch is the most important plant feature that affects expected plant yield. Consequently, the higher the percentage of fruit set at the first fruiting position the higher the fruit yield potential.

C[N+]1(C)CCCCC1.[Cl-] [Mepiquat Chloride, N,N-dimethylpiperidinium chloride]
Plant Height (cotton; Site 1): 10.00 Cm
Plant Height (cotton; Site 2): 27.33 Cm
Plant Height (cotton; Site 3): 7.78 Cm
Average Bottom 5 FPB (First Position Bolls As A Percentage) (MAXXA cotton): 60.0 Percentage
Average Fruiting Branches (MAXXA cotton): 15.7
Average Nodes (MAXXA cotton): 21.7
Average Plant Height (MAXXA cotton): 35.9″
Average Top 5 FPB (First Position Bolls As A Percentage) (MAXXA cotton): 43.0 Percentage
Average Vegetative Nodes (MAXXA cotton): 6.1
First Fruiting Branch [1]: 6
Percentage Of First Fruiting Positions (Nodes 6-13) [1]: 76.3%
Total Percentage Of Fruit Set (Nodes 6-13) [1]: 65.0%
